Laboratory results taken from patent US9815864B2, “Substituted nucleosides, nucleotides and analogs thereof” (Alios BioPharma, Inc., priority 2013, dated 2017).
Like-named read-outs stand apart in the source and are kept apart here.

Legend:
Murine norovirus (MNV-1) = assay: Norovirus MNV-1 antiviral assay (CPE reduction, CellTiter-Glo, RAW 264.7 cells); type: cell-based
NV genome in HG23 cells = assay: Norovirus replicon assay (HG23 cells, NV genome by qRT-PCR); type: cell-based, genogroup 1 norovirus
[1] = biological target: Norovirus polymerase (NoVpol, genotype II) (Lordsdale virus, UniProt P54634); assay: biochemical; settings: 50 nM recombinant enzyme, 2.5 hours at 30° C.; read-out: IC50
[2] = RAW264.7, 72 h, RAW 264.7 cells infected with MNV-1 (MOI of 0.001), 3 days, read-out: EC50
[3] = Norovirus, HG23 cells, reduction of NV genome vs mock-medium at 48 h, read-out: EC50
[4] = RAW 264.7 cells infected with MNV-1 (MOI of 0.001), 3 days, read-out: EC50
[5] = HG23 cells, reduction of NV genome vs mock-medium at 48 h, read-out: EC50

Chain of Norovirus polymerase (NoVpol, genotype II) (P54634 1190-1699 limits assumed): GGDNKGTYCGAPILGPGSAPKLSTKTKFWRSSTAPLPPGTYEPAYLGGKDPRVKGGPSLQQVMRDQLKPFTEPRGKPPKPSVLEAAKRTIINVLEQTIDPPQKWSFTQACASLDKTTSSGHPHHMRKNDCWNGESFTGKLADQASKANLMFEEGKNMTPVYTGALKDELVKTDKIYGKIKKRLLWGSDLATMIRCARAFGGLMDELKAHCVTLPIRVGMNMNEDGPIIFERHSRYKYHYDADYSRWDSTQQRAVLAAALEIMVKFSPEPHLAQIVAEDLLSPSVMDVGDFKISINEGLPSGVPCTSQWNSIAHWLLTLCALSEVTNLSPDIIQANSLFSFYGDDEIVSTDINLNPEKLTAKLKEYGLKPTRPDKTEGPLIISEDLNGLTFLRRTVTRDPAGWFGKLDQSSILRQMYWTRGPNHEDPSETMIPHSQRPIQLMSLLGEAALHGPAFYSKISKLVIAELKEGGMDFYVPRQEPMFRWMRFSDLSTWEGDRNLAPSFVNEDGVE

IC50 [1] | SMILES | EC50 (Murine norovirus (MNV-1); [2]) | EC50 (NV genome in HG23 cells; [3]) | other results
 | Nc1ccn([C@@H]2O[C@@](CO)(CF)[C@@H](O)[C@H]2F)c(=O)n1 [Compound 23a] | 1 to 10 µM | 10 to 100 µM | 
 | [N-]=[N+]=NC[C@]1(CO)O[C@@H](n2ccc(N)nc2=O)[C@H](F)[C@@H]1O [Compound 113a] | 10 to 100 µM | 1 to 10 µM | 
 | CCOc1nc(N)nc2c1ncn2[C@@H]1O[C@](F)(COP(=O)(N[C@@H](C)C(=O)OC2CCCCC2)Oc2ccccc2)[C@@H](O)[C@@]1(C)O (some centres unmarked) [Compound 128a] |  |  | EC50 (NV genome in HG23 cells; Norovirus, HG23, 48 h): 1 to 10 µM
 | C#C[C@]1(O)[C@H](n2ccc(=O)[nH]c2=O)O[C@](F)(COP(=O)(N[C@@H](C)C(=O)OC2CCCCC2)Oc2ccccc2)[C@H]1O (some centres unmarked) [Compound 131a] |  |  | EC50 (Murine norovirus (MNV-1); MNV-1, RAW264.7, 72 h): 10 to 100 µM; EC50 (NV genome in HG23 cells; Norovirus, HG23, 48 h): < 1 µM
 | CCOc1nc(N)nc2c1ncn2[C@@H]1O[C@](F)(COP(=O)(N[C@@H](C)C(=O)OC2CCCCC2)Oc2ccccc2)[C@@H](F)[C@@]1(C)O (some centres unmarked) [Compound 134a] |  |  | EC50 (NV genome in HG23 cells; Norovirus, HG23, 48 h): 1 to 10 µM
 | CCOc1nc(N)nc2c1ncn2[C@@H]1O[C@](F)(CO[P@](=O)(N[C@@H](C)C(=O)OC2CCCCC2)Oc2ccccc2)[C@@H](O)[C@@]1(C)F [Compound 140a] |  |  | EC50 (Murine norovirus (MNV-1); MNV-1, RAW264.7, 72 h): 1 to 10 µM; EC50 (NV genome in HG23 cells; Norovirus, HG23, 48 h): < 1 µM
 | CCOc1nc(N)nc2c1ncn2[C@@H]1O[C@](F)(CO[P@@](=O)(N[C@@H](C)C(=O)OC2CCCCC2)Oc2ccccc2)[C@@H](O)[C@@]1(C)F [Compound 141a] |  |  | EC50 (Murine norovirus (MNV-1); [4]): 1 to 10 µM; EC50 (NV genome in HG23 cells; [5]): 1 to 10 µM
 | C#C[C@]1(O)[C@H](n2cnc3c(OCC)nc(N)nc32)O[C@](F)(CO[P@](=O)(N[C@@H](C)C(=O)OC2CCCCC2)Oc2ccccc2)[C@H]1O [Compound 142a] |  |  | EC50 (NV genome in HG23 cells; [5]): 1 to 10 µM
 | C#C[C@]1(O)[C@H](n2cnc3c(OCC)nc(N)nc32)O[C@](F)(CO[P@@](=O)(N[C@@H](C)C(=O)OC2CCCCC2)Oc2ccccc2)[C@H]1O [Compound 143a] |  |  | EC50 (NV genome in HG23 cells; [5]): 1 to 10 µM
 | CCOc1nc(N)nc2c1ncn2[C@@H]1O[C@]2(F)CO[P@](=O)(OC(C)C)O[C@H]2[C@@]1(C)O [Compound 144a] | 10 to 100 µM | 1 to 10 µM | 
 | CCOc1nc(N)nc2c1ncn2[C@@H]1O[C@]2(F)CO[P@@](=O)(OC(C)C)O[C@H]2[C@@]1(C)O [Compound 145a] | 10 to 100 µM |  | 
< 1 µM | C#C[C@]1(O)[C@H](n2cnc3c(=O)[nH]c(N)nc32)O[C@](F)(CO)[C@H]1F [Compound 146a] | 10 to 100 µM |  | 
 | C#C[C@]1(F)[C@H](n2cnc3c(OCC)nc(N)nc32)O[C@](F)(COP(=O)(N[C@@H](C)C(=O)OC2CCCCC2)Oc2ccccc2)[C@H]1O (some centres unmarked) [Compound 147a] |  |  | EC50 (NV genome in HG23 cells; Norovirus, HG23, 48 h): < 1 µM
 | C#C[C@]1(F)[C@H](n2cnc3c(OCC)nc(N)nc32)O[C@](F)(COP(=O)(N[C@@H](C)C(=O)OC2CCCCC2)Oc2ccccc2)[C@H]1O (some centres unmarked) [Compound 148a] |  |  | EC50 (NV genome in HG23 cells; HG23 cells, reduction of NV genome vs mock-medium at 48 h): < 1 µM
 | CCOc1nc(N)nc2c1ncn2[C@@H]1O[C@]2(F)CO[P@](=O)(OC(C)C)O[C@H]2[C@@]1(C)F [Compound 149a] |  |  | EC50 (Murine norovirus (MNV-1); [4]): 10 to 100 µM; EC50 (NV genome in HG23 cells; [5]): 1 to 10 µM
 | CCOc1nc(N)nc2c1ncn2[C@@H]1O[C@](CF)(COP(=O)(N[C@@H](C)C(=O)OC2CCCCC2)Oc2ccccc2)[C@@H](O)[C@@]1(C)O (some centres unmarked) [Compound 153a] |  |  | EC50 (NV genome in HG23 cells; Norovirus, HG23, 48 h): < 1 µM
 | CC(C)OC(=O)OCOP(=O)(OCOC(=O)OC(C)C)OC[C@@]1(CF)O[C@@H](n2ccc(=O)[nH]c2=O)[C@](C)(O)[C@@H]1O [Compound 156a] | 1 to 10 µM | < 1 µM | 
 | C#C[C@@]1(O)[C@H](O)[C@@](CF)(COP(=O)(OCOC(=O)OC(C)C)OCOC(=O)OC(C)C)O[C@H]1n1cnc2c(N)ncnc21 [Compound 168a] | 10 to 100 µM | < 1 µM | 
 | Nc1ccn([C@@H]2O[C@@](CO)(CF)[C@@H](O)C2(F)F)c(=O)n1 [Compound 179a] | < 1 µM | 1 to 10 µM | 
 | CCOc1nc(N)nc2c1ncn2[C@@H]1O[C@](F)(COP(=O)(OCOC(=O)OC(C)C)OCOC(=O)OC(C)C)[C@@H](O)[C@@]1(C)F [Compound 188a] | 1 to 10 µM | < 1 µM | 
 | C#C[C@]1(O)[C@H](n2ccc(=O)[nH]c2=O)O[C@](F)(COP(=O)(OCOC(=O)OC(C)C)OCOC(=O)OC(C)C)[C@H]1O [Compound 208a] | 10 to 100 µM | < 1 µM | 
 | CCOc1nc(N)nc2c1ncn2[C@@H]1O[C@](F)(COP(=O)(OCOC(=O)OC(C)C)OCOC(=O)OC(C)C)[C@@H](O)[C@@]1(C)O [Compound 209a] | 1 to 10 µM | < 1 µM | 

IC50 [1] | SMILES | EC50 (Murine norovirus (MNV-1); [2]) | EC50 (NV genome in HG23 cells; [3]) | other results
 | [N-]=[N+]=N[C@]1(CO)O[C@@H](n2ccc(N)nc2=O)[C@@H](O)[C@@H]1O [Compound 266a] |  | 1 to 10 µM | 
 | Nc1ccn([C@@H]2O[C@@](CO)(CCl)[C@@H](O)[C@H]2O)c(=O)n1 [Compound 271a] | 10 to 100 µM | 10 to 100 µM | 
 | C#C[C@@]1(O)[C@H](O)[C@@H](CO)O[C@H]1n1ccc2c(N)ncnc21 [Compound 291a] | < 1 µM | < 1 µM | 
1 to 10 µM | C#C[C@@]1(n2cnc3c(=O)[nH]c(N)nc32)O[C@H](COP(=O)(O)OP(=O)(O)OP(=O)(O)O)[C@@H](O)[C@H]1F [Compound 335a] |  |  | 
 | C[C@@]1(O)[C@H](O)[C@](CO)(CF)O[C@H]1n1ccc(N)nc1=O [Compound 338a] |  | 10 to 100 µM | 
1 to 10 µM | C[C@]1(O)[C@H](n2ccc(N)nc2=O)O[C@](C)(COP(=O)(O)OP(=O)(O)OP(=O)(O)O)[C@H]1O [Compound 340a] |  |  | 
< 1 µM | C#C[C@@]1(O)[C@H](O)[C@@](CCl)(COP(=O)(O)OP(=O)(O)OP(=O)(O)O)O[C@H]1n1cnc2c(N)ncnc21 [Compound 342a] |  |  | 
< 1 µM | C[C@@]1(Cl)[C@H](O)[C@@H](COP(=O)(O)OP(=O)(O)OP(=O)(O)O)O[C@H]1n1cnc2c(=O)[nH]c(N)nc21 [Compound 343a] |  |  | 
 | C#C[C@@]1(O)[C@H](O)[C@](CO)(CCl)O[C@H]1n1ccc(=O)[nH]c1=O [Compound 344a] |  | 10 to 100 µM | 
1 to 10 µM | C[C@@]1(O)[C@H](O)[C@@](CN=[N+]=[N-])(COP(=O)(O)OP(=O)(O)OP(=O)(O)O)O[C@H]1n1ccc(=O)[nH]c1=O [Compound 346a] |  |  | 
< 1 µM | C=C[C@@]1(O)[C@H](O)[C@@](CF)(COP(=O)(O)OP(=O)(O)OP(=O)(O)O)O[C@H]1n1ccc(=O)[nH]c1=O [Compound 348a] |  |  | 
< 1 µM | CC#C[C@@]1(O)[C@H](O)[C@@](CF)(COP(=O)(O)OP(=O)(O)OP(=O)(O)O)O[C@H]1n1ccc(=O)[nH]c1=O [Compound 349a] |  |  | 
1 to 10 µM | C=CC[C@@]1(O)[C@H](O)[C@@](CF)(COP(=O)(O)OP(=O)(O)OP(=O)(O)O)O[C@H]1n1ccc(=O)[nH]c1=O [Compound 350a] |  |  | 
< 1 µM | C[C@@]1(O)[C@H](O)[C@@](CF)(COP(=O)(O)OP(=O)(O)OP(=O)(O)O)O[C@H]1n1ccc2c(N)ncnc21 [Compound 351a] |  |  | 
1 to 10 µM | O=c1ccn([C@@H]2O[C@](CF)(COP(=O)(O)OP(=O)(O)OP(=O)(O)O)[C@@H](O)[C@]2(O)CF)c(=O)[nH]1 [Compound 353a] |  |  | 
< 1 µM | C[C@@]1(O)[C@H](O)[C@@](CF)(COP(=O)(O)OP(=O)(O)OP(=O)(O)O)O[C@H]1n1ccc(N)nc1=O [Compound 354a] |  |  | 
< 1 µM | Nc1ccn([C@@H]2O[C@](CF)(COP(=O)(O)OP(=O)(O)OP(=O)(O)O)[C@@H](O)[C@]2(O)CF)c(=O)n1 [Compound 355a] |  |  | 
 | N#C[C@@]1(n2ccc(N)nc2=O)O[C@@](CO)(CF)[C@@H](O)[C@H]1O [Compound 376a] |  |  | EC50 (Murine norovirus (MNV-1); [4]): 10 to 100 µM
 | [N-]=[N+]=N[C@]1(CO)O[C@@H](n2ccc(N)nc2=O)C(F)(F)[C@@H]1O [Compound 380a] |  | 1 to 10 µM | 
 | [N-]=[N+]=N[C@]1(CO)O[C@@H](n2ccc(N)nc2=O)[C@H](O)[C@@H]1O [Compound 381a] |  | 10 to 100 µM | 
< 1 µM | [N-]=[N+]=N[C@]1(COP(=O)(O)OP(=O)(O)OP(=O)(O)O)O[C@@H](n2ccc(N)nc2=O)[C@H](O)[C@@H]1O [Compound 383a] |  |  | 
